# Results published in ChEMBL document CHEMBL1131838, “8-acenaphthen-1-yl-1-phenyl-1,3,8-triaza-spiro[4.5]decan-4-one derivatives as orphanin FQ receptor agonists” (Bioorg Med Chem Lett, 1999).
# Activity calls are given as the source filed them. The rule behind the calls is not given here.
# Tests used:
# [1] = Compound was evaluated for the opioid receptor agonistic activity at dose 1-10 mg/kg by intraperitoneal administration; Inactive; type: functional, organism-based
# Rattus norvegicus [2] = experiment: Forced motor performance in rats was determined and grip strength was reported at 1 mg/kg by ip administration; type: functional; conditions: route intraperitoneal
# D(2) dopamine receptor = D(2) dopamine receptor (Homo sapiens, UniProt P14416); experiment: Affinity against Dopamine receptor D2
# D(2) dopamine receptor, sequence (P14416 whole entry): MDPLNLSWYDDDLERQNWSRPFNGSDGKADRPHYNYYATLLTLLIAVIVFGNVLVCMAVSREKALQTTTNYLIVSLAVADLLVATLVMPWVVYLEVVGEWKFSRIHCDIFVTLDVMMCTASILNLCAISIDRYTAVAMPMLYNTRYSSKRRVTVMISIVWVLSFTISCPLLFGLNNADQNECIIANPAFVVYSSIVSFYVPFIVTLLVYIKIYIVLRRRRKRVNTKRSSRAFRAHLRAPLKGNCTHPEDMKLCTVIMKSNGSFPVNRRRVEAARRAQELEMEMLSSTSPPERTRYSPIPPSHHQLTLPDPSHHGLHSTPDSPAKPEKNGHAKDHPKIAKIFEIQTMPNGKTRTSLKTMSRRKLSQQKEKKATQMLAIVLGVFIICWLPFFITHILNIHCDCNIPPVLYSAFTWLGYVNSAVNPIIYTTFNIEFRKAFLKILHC
# [3] = biological target: T1, 5-hydroxytryptamine receptor 2C (Homo sapiens, UniProt P28335); experiment: Affinity against 5-hydroxytryptamine 2C receptor
# T1 sequence (P28335 whole entry): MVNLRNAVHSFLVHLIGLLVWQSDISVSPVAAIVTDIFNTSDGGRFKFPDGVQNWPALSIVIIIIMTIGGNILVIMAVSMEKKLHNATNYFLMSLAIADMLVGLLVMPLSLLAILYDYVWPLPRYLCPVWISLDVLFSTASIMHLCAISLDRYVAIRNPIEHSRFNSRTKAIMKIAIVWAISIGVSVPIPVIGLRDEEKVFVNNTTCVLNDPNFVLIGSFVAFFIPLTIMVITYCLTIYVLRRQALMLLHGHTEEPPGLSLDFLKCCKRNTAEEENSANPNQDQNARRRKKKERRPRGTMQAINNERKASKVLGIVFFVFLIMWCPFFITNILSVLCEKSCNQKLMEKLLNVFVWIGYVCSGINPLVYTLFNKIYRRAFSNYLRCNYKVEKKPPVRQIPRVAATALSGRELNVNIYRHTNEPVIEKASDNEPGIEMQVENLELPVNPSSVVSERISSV
# Rattus norvegicus [4] = experiment: Spontaneous locomotion in rats was determined and distance moved was reported at dose 1 mg/kg by ip administration; type: functional; conditions: route intraperitoneal
# [5] = biological target: T2, Corticotropin-releasing factor receptor 1 (Rattus norvegicus, UniProt P35353); experiment: Affinity against Corticotropin releasing factor receptor 1
# T2 sequence (P35353 whole entry): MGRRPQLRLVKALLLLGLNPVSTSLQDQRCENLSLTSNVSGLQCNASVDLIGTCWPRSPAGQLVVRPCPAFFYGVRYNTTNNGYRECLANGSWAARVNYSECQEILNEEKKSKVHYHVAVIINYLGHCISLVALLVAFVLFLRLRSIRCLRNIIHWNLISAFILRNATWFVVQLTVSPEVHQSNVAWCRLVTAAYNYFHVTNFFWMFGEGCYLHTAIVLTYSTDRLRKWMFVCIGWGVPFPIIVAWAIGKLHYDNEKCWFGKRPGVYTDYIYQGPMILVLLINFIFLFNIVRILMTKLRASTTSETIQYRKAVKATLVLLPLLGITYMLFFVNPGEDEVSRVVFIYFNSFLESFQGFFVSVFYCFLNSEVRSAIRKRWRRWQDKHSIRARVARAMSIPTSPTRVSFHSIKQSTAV
# Rattus norvegicus [6] = experiment: Forced motor performance in rats was determined and grip strength was reported at 0.32 mg/kg by ip administration; type: functional; conditions: route intraperitoneal
# D(4) dopamine receptor = biological target: T3, D(4) dopamine receptor (Homo sapiens, UniProt P21917); experiment: Affinity against Dopamine receptor D4.4
# T3 sequence (P21917 whole entry): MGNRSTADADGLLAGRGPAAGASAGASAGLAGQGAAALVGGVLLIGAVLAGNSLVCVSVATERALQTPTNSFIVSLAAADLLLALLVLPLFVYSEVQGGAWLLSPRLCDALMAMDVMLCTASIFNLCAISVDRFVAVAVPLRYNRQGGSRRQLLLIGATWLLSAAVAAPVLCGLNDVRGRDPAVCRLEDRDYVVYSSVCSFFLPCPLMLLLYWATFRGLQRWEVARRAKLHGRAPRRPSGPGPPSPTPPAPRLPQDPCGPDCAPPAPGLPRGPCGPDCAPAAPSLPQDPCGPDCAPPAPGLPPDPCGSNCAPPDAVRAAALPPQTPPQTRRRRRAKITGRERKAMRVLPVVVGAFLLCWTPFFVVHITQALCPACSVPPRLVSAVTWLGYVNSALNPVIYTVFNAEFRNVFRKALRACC
# Rattus norvegicus [7] = experiment: Forced motor performance in rats was determined and traction test score was reported at 0.32 mg/kg by ip administration; type: functional; conditions: route intraperitoneal
# [8] = biological target: 5-hydroxytryptamine receptor 1D (Homo sapiens, UniProt P28221); experiment: Affinity against 5-hydroxytryptamine 1D receptor alpha
# 5-hydroxytryptamine receptor 1D, sequence (P28221 whole entry): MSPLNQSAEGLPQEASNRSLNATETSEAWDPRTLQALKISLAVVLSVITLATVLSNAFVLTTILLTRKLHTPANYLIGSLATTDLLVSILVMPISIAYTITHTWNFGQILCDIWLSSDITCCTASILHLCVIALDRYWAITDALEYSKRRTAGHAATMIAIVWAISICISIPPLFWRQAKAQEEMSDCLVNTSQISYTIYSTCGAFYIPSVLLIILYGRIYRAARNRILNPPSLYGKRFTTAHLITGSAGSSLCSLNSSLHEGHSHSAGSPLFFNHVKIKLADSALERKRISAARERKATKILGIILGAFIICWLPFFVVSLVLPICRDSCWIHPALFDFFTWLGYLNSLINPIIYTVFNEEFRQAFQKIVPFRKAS
# [9] = biological target: 5-hydroxytryptamine receptor 7 (Homo sapiens, UniProt P34969); experiment: Affinity against 5-hydroxytryptamine 7 receptor
# 5-hydroxytryptamine receptor 7, sequence (P34969 whole entry): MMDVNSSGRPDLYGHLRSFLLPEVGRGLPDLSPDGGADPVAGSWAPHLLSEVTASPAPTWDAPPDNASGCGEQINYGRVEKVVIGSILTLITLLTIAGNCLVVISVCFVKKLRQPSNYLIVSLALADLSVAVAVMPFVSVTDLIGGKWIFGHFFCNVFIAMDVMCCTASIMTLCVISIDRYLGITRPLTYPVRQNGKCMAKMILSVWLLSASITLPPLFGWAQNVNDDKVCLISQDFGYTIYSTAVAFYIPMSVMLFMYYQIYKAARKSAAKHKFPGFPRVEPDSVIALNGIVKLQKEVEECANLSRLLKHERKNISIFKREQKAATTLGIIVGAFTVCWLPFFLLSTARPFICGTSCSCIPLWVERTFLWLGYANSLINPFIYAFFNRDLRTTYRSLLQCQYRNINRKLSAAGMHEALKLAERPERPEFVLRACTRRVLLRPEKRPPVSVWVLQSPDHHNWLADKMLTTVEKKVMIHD
# D(1A) dopamine receptor = D(1A) dopamine receptor (Mus musculus, UniProt Q61616); experiment: Affinity against Dopamine receptor D1
# D(1A) dopamine receptor, sequence (Q61616 whole entry): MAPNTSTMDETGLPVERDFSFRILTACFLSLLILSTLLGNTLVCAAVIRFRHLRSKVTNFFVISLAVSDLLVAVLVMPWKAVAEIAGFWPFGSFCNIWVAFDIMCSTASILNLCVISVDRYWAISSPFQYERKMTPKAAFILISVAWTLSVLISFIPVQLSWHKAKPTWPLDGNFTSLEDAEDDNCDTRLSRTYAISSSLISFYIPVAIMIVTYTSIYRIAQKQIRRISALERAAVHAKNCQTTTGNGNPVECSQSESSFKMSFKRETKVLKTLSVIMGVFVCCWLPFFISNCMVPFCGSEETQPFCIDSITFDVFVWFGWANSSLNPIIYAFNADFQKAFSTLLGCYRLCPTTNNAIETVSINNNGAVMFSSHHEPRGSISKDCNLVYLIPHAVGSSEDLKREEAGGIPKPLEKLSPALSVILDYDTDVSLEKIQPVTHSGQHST
# [10] = biological target: GABA-A receptor; anion channel; experiment: Binding affinity for GABA-A central benzodiazepine receptor; type: protein-complex assay
# Rattus norvegicus [11] = experiment: Forced motor performance in rats was determined and traction test score was reported at 1 mg/kg by ip administration; type: functional; conditions: route intraperitoneal
# [12] = Affinity against Corticotropin releasing factor receptor 2 alpha
# [13] = biological target: 5-hydroxytryptamine receptor 6 (Homo sapiens, UniProt P50406); experiment: Affinity against 5-hydroxytryptamine 6 receptor
# 5-hydroxytryptamine receptor 6, sequence (P50406 whole entry): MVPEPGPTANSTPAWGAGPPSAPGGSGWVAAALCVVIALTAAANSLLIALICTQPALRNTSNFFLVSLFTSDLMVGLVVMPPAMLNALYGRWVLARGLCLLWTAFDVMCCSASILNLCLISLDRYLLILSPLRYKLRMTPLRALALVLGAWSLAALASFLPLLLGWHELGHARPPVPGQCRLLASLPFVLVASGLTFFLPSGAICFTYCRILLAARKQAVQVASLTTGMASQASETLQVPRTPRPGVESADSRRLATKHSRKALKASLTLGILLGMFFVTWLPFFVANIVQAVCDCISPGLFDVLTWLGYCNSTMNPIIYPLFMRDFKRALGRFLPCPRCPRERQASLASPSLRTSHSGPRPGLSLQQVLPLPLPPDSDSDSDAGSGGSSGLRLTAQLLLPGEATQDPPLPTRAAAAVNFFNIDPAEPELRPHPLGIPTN
# Rattus norvegicus [14] = experiment: Spontaneous locomotion in rats was determined and distance moved was reported at dose 3.2 mg/kg by ip administration; type: functional; conditions: route intraperitoneal
# Rattus norvegicus [15] = experiment: Forced motor performance in rats was determined and grip strength was reported at 3.2 mg/kg by ip administration; type: functional; conditions: route intraperitoneal
# Rattus norvegicus [16] = experiment: Forced motor performance in rats was determined and traction test score was reported at 3.2 mg/kg by ip administration; type: functional; conditions: route intraperitoneal
# [17] = biological target: 5-hydroxytryptamine receptor 2A (Homo sapiens, UniProt P28223); experiment: Affinity against 5-hydroxytryptamine 2A receptor
# 5-hydroxytryptamine receptor 2A, sequence (P28223 whole entry): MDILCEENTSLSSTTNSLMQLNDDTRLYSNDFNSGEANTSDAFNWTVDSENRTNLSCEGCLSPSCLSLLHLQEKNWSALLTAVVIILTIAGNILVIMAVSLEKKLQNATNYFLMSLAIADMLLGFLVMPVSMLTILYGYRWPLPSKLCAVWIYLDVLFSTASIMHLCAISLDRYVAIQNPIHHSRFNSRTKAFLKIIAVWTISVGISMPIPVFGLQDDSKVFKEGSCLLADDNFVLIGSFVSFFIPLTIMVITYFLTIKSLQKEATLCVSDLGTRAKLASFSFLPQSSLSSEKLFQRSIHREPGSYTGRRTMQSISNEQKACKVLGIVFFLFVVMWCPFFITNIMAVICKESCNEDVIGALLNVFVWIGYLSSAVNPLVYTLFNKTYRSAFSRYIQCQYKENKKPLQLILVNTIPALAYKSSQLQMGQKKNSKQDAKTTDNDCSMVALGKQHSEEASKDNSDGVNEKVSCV
# Rattus norvegicus [18] = experiment: Spontaneous locomotion in rats was determined and distance moved was reported at dose 0.32 mg/kg by ip administration; type: functional; conditions: route intraperitoneal
# D(3) dopamine receptor = D(3) dopamine receptor (Homo sapiens, UniProt P35462); experiment: Affinity against Dopamine receptor D3
# D(3) dopamine receptor, sequence (P35462 whole entry): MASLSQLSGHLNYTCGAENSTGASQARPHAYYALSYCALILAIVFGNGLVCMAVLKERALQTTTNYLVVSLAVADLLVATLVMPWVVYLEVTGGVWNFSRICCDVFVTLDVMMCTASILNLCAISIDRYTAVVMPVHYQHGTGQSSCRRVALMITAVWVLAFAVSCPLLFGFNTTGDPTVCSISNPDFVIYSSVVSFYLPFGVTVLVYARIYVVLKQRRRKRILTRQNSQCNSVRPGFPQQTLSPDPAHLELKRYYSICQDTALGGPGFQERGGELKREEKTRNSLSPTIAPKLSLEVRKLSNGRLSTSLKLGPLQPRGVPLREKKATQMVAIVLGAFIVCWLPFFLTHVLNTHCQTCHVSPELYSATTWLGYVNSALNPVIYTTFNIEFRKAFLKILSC
compound,measurement,setting,value
CN1CC[C@]23c4c5ccc(O)c4O[C@H]2[C@@H](O)C=C[C@H]3[C@H]1C5,Activity,[1],inactive
O=C1NCN(c2ccccc2)C12CCN([C@@H]1Cc3cccc4cccc1c34)CC2,Grip strength,Rattus norvegicus [2],521.63 g
same,Log Ki,D(2) dopamine receptor,< -6.5
same,Log Ki,[3],< -6.5
same,Locomotion,Rattus norvegicus [4],1465.79 cm
same,Log Ki,[5],< -6.5
same,Grip strength,Rattus norvegicus [6],516.25 g
same,Log Ki,D(4) dopamine receptor,< -6.5
same,Traction test,Rattus norvegicus [7],4 score
same,Log Ki,[8],< -6.5
same,Log Ki,[9],< -6.5
same,Log Ki,D(1A) dopamine receptor,< -6.5
same,Log Ki,[10],< -6.5
same,Traction test,Rattus norvegicus [11],4 score
same,Log Ki,[12],< -6.5
same,Log Ki,[13],< -6.5
same,Locomotion,Rattus norvegicus [14],1141.08 cm
same,Grip strength,Rattus norvegicus [15],479 g
same,Traction test,Rattus norvegicus [16],3.75 score
same,Log Ki,[17],< -6.5
same,Locomotion,Rattus norvegicus [18],1412.39 cm
same,Log Ki,D(3) dopamine receptor,< -6.5
